We go through five compounds from US4680310A, “Tetrahydronaphthalene derivatives” (Hoffmann-La Roche Inc., priority 1984, dated 1987).

Experiment [1] has as its system ^3 H-nifedipine (or ^3 H-nitrendipine) receptor binding on homogenates or partially-cleaned membranes of rabbit or guinea pig heart. The experiment in a line: ^3 H-Nifedipine binding determinations (test A). Particulars: nifedipine established as 100%. As for the experimental part: A. ^3 H-Nifedipine binding determinations:
The determination is carried out on homogenates or on partially-cleaned membranes of rabbit or guinea pig heart. The reaction mixture (0.3 ml) consists of 0.2-0.8 mg of membrane protein, 1 nM of ^3 H-nifedipine (or 0.25 nM of ^3 H-nitrendipine) and various concentrations of the test substances. The incubation lasts 30 minutes at 25° C. or 37° C. and is stopped by dilution with the incubation buffer; a filtration is subsequently carried out. The filter-bound radioactivity is measured with a scintillation counter. Specific binding (i.e. receptor-bound) is defined as the differences between total and unspecific-bound radioactivity. The unspecific binding is determined in the presence of an excess of non-radioactive nifedipine (1 μM).
The activity (potency) of a compound in this test is defined by the IC50 and % maximum inhibition values (% max. inhibition). The IC50 is the substance concentration (in mol/l) which produces a half-maximum inhibition of the specific ^3 H-nifedipine (or ^3 H-nitrendipine) binding. The maximum inhibition of the specific binding is given by the % maximum inhibition value; this value is established as 100% for the reference compound nifedipine. Both parameters are extrapolated from a concentration-binding curve.

Another experiment concerns narcotized dog. Kind of experiment: Haemodynamic parameters in the narcotized dog (test C). The class given is in vivo. To be noted: 0.1 mg/kg i.v. The source says: C. Haemodynamic parameters in the narcotized dog:
The 4 most important measurement parameters (with respective measurement units) of the haemodynamic experiment are: (1) CBF: Coronary Blood Flow (in ml/min)--the velocity of blood flow through the coronary arteries; (2) HR: heart rate (in beats/min)--the heart frequency; (3) BP: blood pressure (in mm Hg)--the blood pressure; and (4) dp/dt: rate of increase in left ventricular pressure (in mm Hg/sec) as a measurement of the contractility force of the heart. The values are given as the % maximum variation from the initial value (Δ%) per dosage administered.
There is thus obtained not only an overall picture of the activity of the substance, but also an estimation as to the potential selectivity for a specific part of the circulatory system in the entire organism. After the administration of an anaesthetic, the dog is intubated and respired artificially. Blood pH, pCO2, pO2 and haemoglobin are measured hourly with a blood-gas analyser. The blood pressure (systolic and diastolic) is measured with a probe in the aorta abdominalis. The heart frequency is recorded by means of a tachometer, which is disengaged from the pressure pulse. For the other measurements the heart must first be opened in order that a probe can be inserted in the left ventricle (heart chamber) for the pressure measurements (dp/dt). The coronary blood flow is measured with a flowing probe in the left coronary artery (descendens).

The subject of experiment [2] is Coronary artery strips of dogs (KCl contracture; tension-dependent calcium channel). Kind of experiment: Relaxation of KCl contracture in coronary artery strips of dogs (test B). The class given is cell-based, dog. To be noted: Canis lupus familiaris, KCl 84.7 mM, 37° C., read-out: IC50 (half-maximum relaxation of a KCl contracture). As for the experimental part: B. Coronary artery strips of dogs:
In this experiment spiral strips (2-2.5 mm wide and 10 mm long) of coronary arteries of dogs are cut and hung up in an organ chamber under an initial tension of 1.5 g. These strips are pre-incubated for a duration of about 1 to 2 hours in Krebs-Henseleit buffer solution which is gassed with Oxycarbon (a mixture of 95% oxygen and 5% carbon dioxide) at 37° C. The relaxing activity of one of these substances is subsequently tested on a KCl (84.7 mM) contracture by the addition of increasing concentrations of the test substance to the organ chamber. The calcium channel-blocking activity of the test substances can therefore be established, as the KCl contracture occurs exclusively by means of calcium flow through the tension-dependent calcium channel.
The activity of a test substance in this test is given by the IC50 value. This value is defined as the substance concentration (in mol/l) which produces a half-maximum relaxation of a KCl contracture. This value is also extrapolated from the resulting concentration-activity curve.

Structures are written as SMILES.

Regarding `COCC(=O)O[C@]1(CCN(C)CCc2ccc(OC)c(OC)c2)CCc2cc(F)ccc2[C@@H]1C(C)C` (relative stereo) [A, 2-[2-[(3,4-Dimethoxyphenethyl)methylamino]ethyl]-6-fluoro-1,2,3,4-tetrahydro-1α-isopropyl-2α-naphthyl methoxyacetate], the “% max inhib. (maximum inhibition of specific binding)” value in experiment [1] is 77%. Also, in the experiment with narcotized dog, the “BP (blood pressure), % maximum variation from the initial value” (“BP (blood pressure), % maximum variation” below) was -18 Δ %; the “CBF (Coronary Blood Flow), % maximum variation from the initial value” (from here on “CBF … % maximum variation from the initial value”) is on record as “+93 Δ %”; the “HR (heart rate), % maximum variation from the initial value” (shortened to “HR (heart rate), % maximum variation”) is reported as -3 Δ %; the “dp/dt (rate of increase in left ventricular pressure), % maximum variation from the initial value” is -5 Δ %. In addition, in experiment [2], the IC50 is 2.8 nM.

With `COc1ccc(CCN(C)CC[C@@]2(OC(C)=O)CCc3cc(OC)c(OC)cc3[C@@H]2C(C)C)cc1OC` (relative stereo) [D, 6,7-dimethoxy-2-[2-[(3,4-dimethoxyphenethyl)methylamino]ethyl]-1,2,3,4-tetrahydro-1α-isopropyl-2α-naphthyl acetate], the “% max inhib. (maximum inhibition of specific binding)” value in experiment [1] was determined as 82%. Besides, in the experiment with narcotized dog, the “BP (blood pressure), % maximum variation” value is reported as -9 Δ %; the “CBF … % maximum variation from the initial value” is recorded as “+58 Δ %”; the “HR (heart rate), % maximum variation” value is reported as -15 Δ %; the “dp/dt (rate of increase in left ventricular pressure), % maximum variation from the initial value” is given as “+3 Δ %”. In experiment [2], the IC50 turned out to be 87 nM.

As to `COCC(=O)O[C@]1(CCN(C)CCc2ccc(OC)c(OC)c2)CCc2cc(OC)c(OC)cc2[C@@H]1C(C)C` (relative stereo) [E, 6,7-dimethoxy-2-[2-[(3,4-dimethoxyphenethyl)methylamino]ethyl]-1,2,3,4-tetrahydro-1α-isopropyl-2α-naphthyl methoxyacetate], the “% max inhib. (maximum inhibition of specific binding)” value in experiment [1] came out at 88%. In addition, in the experiment with narcotized dog, the “BP (blood pressure), % maximum variation” value is -12 Δ %; the “CBF … % maximum variation from the initial value” is “+65 Δ %”; the “HR (heart rate), % maximum variation” value was -7 Δ %; the “dp/dt (rate of increase in left ventricular pressure), % maximum variation from the initial value” was “+22 Δ %”. Also, the IC50 in experiment [2] amounted to 20 nM.

With `COCC(=O)O[C@]1(CCN(C)CCc2ccc(OC)c(OC)c2)CCc2cc(F)ccc2[C@@H]1C(C)C` [B, [1S,2S]-2-[2-[(3,4-dimethoxyphenethyl)methylamino]ethyl]-6-fluoro-1,2,3,4-tetrahydro-1-isopropyl-2-naphthyl methoxyacetate], the “% max inhib. (maximum inhibition of specific binding)” value in experiment [1] is reported as 100%. Moreover, in the experiment with narcotized dog, the “BP (blood pressure), % maximum variation” value is reported as -23 Δ %; the “CBF … % maximum variation from the initial value” is listed as “+100 Δ %”; the “HR (heart rate), % maximum variation” value was -20 Δ %; the “dp/dt (rate of increase in left ventricular pressure), % maximum variation from the initial value” is “+13 Δ %”. For the same compound, the IC50 in experiment [2] was found to be 6.1 nM.

For the compound `COCC(=O)O[C@@]1(CCN(C)CCc2ccc(OC)c(OC)c2)CCc2cc(F)ccc2[C@H]1C(C)C` [C, [1R,2R2-[2[(3,4Dimethoxyphenethyl)methylamino]ethyl6-fluoro-1,2,3,4-tetraydro-1-isopropyl-2-napthyl methoxyacetate], in experiment [1], the “% max inhib. (maximum inhibition of specific binding)” value is reported as 73%. In addition, in the experiment on narcotized dog, the “BP (blood pressure), % maximum variation” value is recorded as -16 Δ %; the “CBF … % maximum variation from the initial value” is “+58 Δ %”; the “HR (heart rate), % maximum variation” value was -5 Δ %; the “dp/dt (rate of increase in left ventricular pressure), % maximum variation from the initial value” is listed as “+26 Δ %”. In experiment [2], the IC50 is 78 nM.

As usually defined, the IC50 is the concentration needed to halve the response being measured.
